Measured values as given in US20240050428A1 (Cullgen (Shanghai), Inc., priority 2020, published 2024).
Read-outs that look alike come from different tables or passages of the source.

Key:
MV4;11 cells = assay: Cell viability assay (CellTiter-Glo) in MV4;11 cells, alone or with gilteritinib; format: cell-based; details: Homo sapiens, MV4-11, 72 h, MV4;11 cells, three days, CellTiter-Glo, read-out: MV4
MOLM-13 cells = assay: Cell viability assay (CellTiter-Glo) in MOLM-13 cells, alone or with gilteritinib; format: cell-based; details: Homo sapiens, MOLM-13, 72 h, MOLM-13 cells, three days, CellTiter-Glo
[1] = compound alone (without gilteritinib), 11 IC50
[2] = compound with gilteritinib 10 nM, 11 IC50 gilteritinib
[3] = compound alone (without gilteritinib), read-out: MOLM-13 IC50
[4] = compound with gilteritinib 20 nM, read-out: MOLM-13 IC50 gilteritinib

SMILES | IC50 (MV4;11 cells; [1]) | IC50 (MV4;11 cells; [2]) | IC50 (MOLM-13 cells; [3]) | IC50 (MOLM-13 cells; [4])
O=C1CCC(N2C(=O)c3ccc(NCCC[C@H]4C[C@H](n5cc(-c6cnc7cc(C8CCOCC8)ccc7n6)cn5)C4)cc3C2=O)C(=O)N1 (stereo partly drawn) [GS-420, 2-(2,6-dioxopiperidin-3-yl)-5-((3-(trans-3-(4-(6-(tetrahydro-2H-pyran-4-yl)quinoxalin-2-yl)-1H-pyrazol-1-yl)cyclobutyl)propyl)amino)isoindoline-1,3-dione] | 100 to 1000 nM | 10 to 100 nM | 100 to 1000 nM | 10 to 100 nM
O=C1CCC(N2C(=O)c3ccc(NCCC[C@H]4C[C@H](n5cc(-c6cnc7cc(C8CCNCC8)ccc7n6)cn5)C4)cc3C2=O)C(=O)N1 (stereo partly drawn) [GS-421, 2-(2,6-dioxopiperidin-3-yl)-5-((3-(trans-3-(4-(6-(piperidin-4-yl)quinoxalin-2-yl)-1H-pyrazol-1-yl)cyclobutyl)propyl)amino)isoindoline-1,3-dione] | 10 to 100 nM | < 10 nM | 10 to 100 nM | < 10 nM
Cc1nn([C@H]2C[C@@H](CCCNc3ccc4c(c3)C(=O)N(C3CCC(=O)NC3=O)C4=O)C2)cc1-c1cnc2cc(N3CCOCC3)ccc2n1 (stereo partly drawn) [GS-422, 2-(2,6-dioxopiperidin-3-yl)-5-((3-(cis-3-(3-methyl-4-(6-morpholinoquinoxalin-2-yl)-1H-pyrazol-1-yl)cyclobutyl)propyl)amino)isoindoline-1,3-dione] | 10 to 100 nM | < 10 nM | 10 to 100 nM | < 10 nM
CN1CCN(c2ccnc(-c3cnn([C@H]4C[C@H](CCCNc5ccc6c(c5)C(=O)N(C5CCC(=O)NC5=O)C6=O)C4)c3)n2)CC1 (stereo partly drawn) [GS-423, 2-(2,6-dioxopiperidin-3-yl)-5-((3-(trans-3-(4-(4-(4-methylpiperazin-1-yl)pyrimidin-2-yl)-1H-pyrazol-1-yl)cyclobutyl)propyl)amino)isoindoline-1,3-dione] | 100 to 1000 nM | 10 to 100 nM | 100 to 1000 nM | 10 to 100 nM
CN1CCN(c2ccnc(-c3cnn([C@H]4C[C@H](CNc5ccc6c(c5)C(=O)N(C5CCC(=O)NC5=O)C6=O)C4)c3)n2)CC1 (stereo partly drawn) [GS-424, 2-(2,6-dioxopiperidin-3-yl)-5-(((trans-3-(4-(4-(4-methylpiperazin-1-yl)pyrimidin-2-yl)-1H-pyrazol-1-yl)cyclobutyl)methyl)amino)isoindoline-1,3-dione] | > 1000 nM | > 1000 nM | 100 to 1000 nM | 10 to 100 nM
O=C1CCC(N2C(=O)c3ccc(NCCC[C@H]4C[C@@H](n5cc(-c6cnc7cc(N8CCNCC8)ccc7n6)cn5)C4)cc3C2=O)C(=O)N1 (stereo partly drawn) [GS-425, 2-(2,6-dioxopiperidin-3-yl)-5-((3-(cis-3-(4-(6-(piperazin-1-yl)quinoxalin-2-yl)-1H-pyrazol-1-yl)cyclobutyl)propyl)amino)isoindoline-1,3-dione] | > 1000 nM | 10 to 100 nM | 100 to 1000 nM | 10 to 100 nM
CN1CCC(c2cccc3nc(-c4cnn([C@H]5C[C@H](CCCNc6ccc7c(c6)C(=O)N(C6CCC(=O)NC6=O)C7=O)C5)c4)cnc23)CC1 (stereo partly drawn) [GS-426, 2-(2,6-dioxopiperidin-3-yl)-5-((3-(trans-3-(4-(5-(1-methylpiperidin-4-yl)quinoxalin-2-yl)-1H-pyrazol-1-yl)cyclobutyl)propyl)amino)isoindoline-1,3-dione] | 10 to 100 nM | < 10 nM | 10 to 100 nM | < 10 nM
O=C1CCC(N2C(=O)c3ccc(NCCC[C@H]4C[C@H](n5cc(-c6cnc7c(C8CCOCC8)cccc7n6)cn5)C4)cc3C2=O)C(=O)N1 (stereo partly drawn) [GS-427, 2-(2,6-dioxopiperidin-3-yl)-5-((3-(trans-3-(4-(5-(tetrahydro-2H-pyran-4-yl)quinoxalin-2-yl)-1H-pyrazol-1-yl)cyclobutyl)propyl)amino)isoindoline-1,3-dione] | 10 to 100 nM | < 10 nM | 10 to 100 nM | < 10 nM
Cc1nn([C@H]2C[C@@H](CCCNc3ccc4c(c3)C(=O)N(C3CCC(=O)NC3=O)C4=O)C2)cc1-c1cnc2cc(N3CCN(C)CC3)ccc2n1 (stereo partly drawn) [GS-428, 2-(2,6-dioxopiperidin-3-yl)-5-((3-(cis-3-(3-methyl-4-(6-(4-methylpiperazin-1-yl)quinoxalin-2-yl)-1H-pyrazol-1-yl)cyclobutyl)propyl)amino)isoindoline-1,3-dione] | 10 to 100 nM | < 10 nM | 10 to 100 nM | < 10 nM
O=C1CCC(N2C(=O)c3ccc(NCCC[C@H]4C[C@@H](n5cc(-c6cnc7cc(C8CCNCC8)ccc7n6)cn5)C4)cc3C2=O)C(=O)N1 (stereo partly drawn) [GS-429, 2-(2,6-dioxopiperidin-3-yl)-5-((3-(cis-3-(4-(6-(piperidin-4-yl)quinoxalin-2-yl)-1H-pyrazol-1-yl)cyclobutyl)propyl)amino)isoindoline-1,3-dione] | 100 to 1000 nM | < 10 nM | 100 to 1000 nM | 10 to 100 nM
O=C1CCC(N2C(=O)c3ccc(NCCC[C@H]4C[C@@H](n5cc(-c6cnc7cc(C8CCOCC8)ccc7n6)cn5)C4)cc3C2=O)C(=O)N1 (stereo partly drawn) [GS-430, 2-(2,6-dioxopiperidin-3-yl)-5-((3-(cis-3-(4-(6-(tetrahydro-2H-pyran-4-yl)quinoxalin-2-yl)-1H-pyrazol-1-yl)cyclobutyl)propyl)amino)isoindoline-1,3-dione] | 100 to 1000 nM | 10 to 100 nM | > 1000 nM | 10 to 100 nM
O=C1CCC(N2C(=O)c3ccc(NCCC[C@H]4C[C@H](n5cc(-c6cnc7c(C8CCNCC8)cccc7n6)cn5)C4)cc3C2=O)C(=O)N1 (stereo partly drawn) [GS-431, 2-(2,6-dioxopiperidin-3-yl)-5-((3-(trans-3-(4-(5-(piperidin-4-yl)quinoxalin-2-yl)-1H-pyrazol-1-yl)cyclobutyl)propyl)amino)isoindoline-1,3-dione] | < 10 nM | < 10 nM | 10 to 100 nM | < 10 nM
CN1CCC(c2ccc3nc(-c4cnn([C@H]5C[C@@H](CCCNc6ccc7c(c6)C(=O)N(C6CCC(=O)NC6=O)C7=O)C5)c4)cnc3c2)CC1 (stereo partly drawn) [GS-432, 2-(2,6-dioxopiperidin-3-yl)-5-((3-(cis-3-(4-(6-(1-methylpiperidin-4-yl)quinoxalin-2-yl)-1H-pyrazol-1-yl)cyclobutyl)propyl)amino)isoindoline-1,3-dione] | > 1000 nM | 10 to 100 nM | > 1000 nM | 10 to 100 nM

Continued, values first:

IC50 (MV4;11 cells; [1]) | IC50 (MV4;11 cells; [2]) | IC50 (MOLM-13 cells; [3]) | IC50 (MOLM-13 cells; [4]) | SMILES
> 1000 nM | > 1000 nM | > 1000 nM | > 1000 nM | O=C1CCC(N2C(=O)c3ccc(NCCC[C@H]4C[C@H](n5cc(C6CCOCC6)cn5)C4)cc3C2=O)C(=O)N1 (stereo partly drawn) [GS-433, 2-(2,6-dioxopiperidin-3-yl)-5-((3-(trans-3-(4-(tetrahydro-2H-pyran-4-yl)-1H-pyrazol-1-yl)cyclobutyl)propyl)amino)isoindoline-1,3-dione]
< 10 nM | < 10 nM | 10 to 100 nM | < 10 nM | Cc1nn([C@H]2C[C@@H](CCCNc3ccc4c(c3)C(=O)N(C3CCC(=O)NC3=O)C4=O)C2)cc1-c1cnc2cc(N3CCNCC3)ccc2n1 (stereo partly drawn) [GS-434, 2-(2,6-dioxopiperidin-3-yl)-5-((3-(cis-3-(3-methyl-4-(6-(piperazin-1-yl)quinoxalin-2-yl)-1H-pyrazol-1-yl)cyclobutyl)propyl)amino)isoindoline-1,3-dione]
100 to 1000 nM | > 1000 nM | > 1000 nM | 100 to 1000 nM | CN1CCC(c2cnn([C@H]3C[C@H](CCCNc4ccc5c(c4)C(=O)N(C4CCC(=O)NC4=O)C5=O)C3)c2)CC1 (stereo partly drawn) [GS-435, 2-(2,6-dioxopiperidin-3-yl)-5-((3-(trans-3-(4-(1-methylpiperidin-4-yl)-1H-pyrazol-1-yl)cyclobutyl)propyl)amino)isoindoline-1,3-dione]
> 1000 nM | 100 to 1000 nM | > 1000 nM | 100 to 1000 nM | CN1CCN(c2nccc(-c3cnn([C@H]4C[C@H](CCCNc5ccc6c(c5)C(=O)N(C5CCC(=O)NC5=O)C6=O)C4)c3)n2)CC1 (stereo partly drawn) [GS-436, 2-(2,6-dioxopiperidin-3-yl)-5-((3-(trans-3-(4-(2-(4-methylpiperazin-1-yl)pyrimidin-4-yl)-1H-pyrazol-1-yl)cyclobutyl)propyl)amino)isoindoline-1,3-dione]
> 1000 nM | > 1000 nM | > 1000 nM | 100 to 1000 nM | O=C1CCC(N2C(=O)c3ccc(NCCCC4CC(n5cc(N6CCOCC6)cn5)C4)cc3C2=O)C(=O)N1 (stereo not drawn) [GS-437, 2-(2,6-dioxopiperidin-3-yl)-5-((3-(3-(4-morpholino-1H-pyrazol-1-yl)cyclobutyl)propyl)amino)isoindoline-1,3-dione]
> 1000 nM | > 1000 nM | > 1000 nM | 100 to 1000 nM | O=C1CCC(N2C(=O)c3ccc(NC[C@H]4C[C@H](n5cc(N6CCOCC6)c(C6CC6)n5)C4)cc3C2=O)C(=O)N1 (stereo partly drawn) [GS-438, 5-(((trans-3-(3-cyclopropyl-4-morpholino-1H-pyrazol-1-yl)cyclobutyl)methyl)amino)-2-(2,6-dioxopiperidin-3-yl)isoindoline-1,3-dione]
100 to 1000 nM | 10 to 100 nM | > 1000 nM | 10 to 100 nM | Cc1cccc(-c2cn([C@H]3C[C@H](CNc4ccc5c(c4)C(=O)N(C4CCC(=O)NC4=O)C5=O)C3)nc2C(F)(F)F)n1 (stereo partly drawn) [GS-439, 2-(2,6-dioxopiperidin-3-yl)-5-(((trans-3-(4-(6-methylpyridin-2-yl)-3-(trifluoromethyl)-1H-pyrazol-1-yl)cyclobutyl)methyl)amino)isoindoline-1,3-dione]
100 to 1000 nM | 100 to 1000 nM | 100 to 1000 nM | 100 to 1000 nM | CN1CCN(c2cccc(-c3cn([C@H]4C[C@H](CNc5ccc6c(c5)C(=O)N(C5CCC(=O)NC5=O)C6=O)C4)nc3C3CC3)n2)CC1 (stereo partly drawn) [GS-440, 5-(((trans-3-(3-cyclopropyl-4-(6-(4-methylpiperazin-1-yl)pyridin-2-yl)-1H-pyrazol-1-yl)cyclobutyl)methyl)amino)-2-(2,6-dioxopiperidin-3-yl)isoindoline-1,3-dione]
